The values that follow are results of earlier work, collected in patent US6534508B2, “Methods and compositions for treating infection using optically pure (S)-lomefloxacin” (priority 1991, dated 2003).

The data set relates to M. tuberculosis. The conditions noted are these: 11 strains resistant to conventional drug therapy; cited from earlier work.

≈ marks a conversion by molar mass, not a printed value.

On to `CCn1cc(C(=O)O)c(=O)c2cc(F)c(N3CCNC(C)C3)c(F)c21` (racemic) [LM, 1-ethyl-6,8-difluoro-1,4-dihydro-7-(3-methyl-lpiperazinyl)-4-oxo-3-quinolinecarboxylic acid], for which the MIC50 (as a rule, an inhibitory concentration at the 50% level, which refers to growth in some studies and to a panel of isolates in others) was 1.0 µg/mL (≈ 2.85 µM); the MIC90 (commonly an inhibitory concentration at the 90% level, which refers to growth in some studies and to a panel of isolates in others) was 1.1 µg/mL (≈ 3.13 µM).
